US5834012A, “Lipid complexed topoisomerase I inhibitors” (Perez-Soler; Roman, priority 1995, dated 1998)
Counter-ions that a name gives are not always drawn.

Legend:
[1] = Lipids screened for complexation with CPT (fluorescent microscopy; % bound); format: physicochemical; conditions: for % bound to CPT / Crystals: Table 1; for Crystals: lipid alone with CPT, fluorescent microscopy
Description: (§1) In order to prepare LC-CPT (a liposomal preparation containing CPT within spherical lipid vesicles) various individual lipids were screened for complexation with CPT. […] CPT crystals and lipid/CPT complexes of >0.4 microns can be visualized under a fluorescent microscope (since CPT fluoresces due to its rigid ring structure). […] Therefore, the better a lipid complexes with CPT the less CPT crystals are formed, and the more lipid/CPT complexes are formed.
Drug/lipid Complex Preparation. CPT was mixed in ratios of from 2:1 to 25:1 w/w lipid:drug in chloroform-methanol (8:1). For studies where CPT was radiolabeled, approximately 0.02 uCi/ml [^3 H] CPT was added to the preparation. Trace quantities of ^14 C labeled cholesterol was added to samples requiring lipid labeling. For small samples, the lipids were dried in 12×75 mm culture tubes under a stream of nitrogen gas. For large samples, a rotavapor (Buchi RE140, Switzerland) was used to dry lipids in a 100 to 1000 ml round bottom flasks. […] For liposomal CPT 0.9% Nace was used. Preparations were screened for lipid entrapment by light and fluorescent microscopy (Nikon Labophot-2, Japan). […]
Lipids of varying carbon chain length, charge, and saturation, alone or in different combinations, were empirically screened for their ability to form liposomes incorporating CPT by fluorescent microscopy.

human tumors = conditions: cited from earlier work
[2] = Hertzberg et al., 1989; cited from earlier work
[3] = Complexation with CPT / liposome formation by fluorescent microscopy; format: physicochemical
Description: as §1
Drug/lipid Complex Preparation. CPT was mixed in ratios of from 2:1 to 25:1 w/w lipid:drug in chloroform-methanol (8:1). For studies where CPT was radiolabeled, approximately 0.02 uCi/ml [^3 H] CPT was added to the preparation. Trace quantities of ^14 C labeled cholesterol was added to samples requiring lipid labeling. For small samples, the lipids were dried in 12×75 mm culture tubes under a stream of nitrogen gas. For large samples, a rotavapor (Buchi RE140, Switzerland) was used to dry lipids in a 100 to 1000 ml round bottom flasks. The lipophilic film was then vortexed in a Touch Mixer Model 231 (Fisher Scientific, Fair Lawn, N.J., U.S.A.) for one minute in sterile phosphate buffered saline (pH 7.4). For liposomal CPT 0.9% Nace was used. Preparations were screened for lipid entrapment by light and fluorescent microscopy (Nikon Labophot-2, Japan).
To increase the cytotoxic effects of LC-CPT relative to CPT, lipid must surround (encapsulate) the CPT to protect it from inactivation. Since the cytotoxicity of LC-CPT was similar to that of the free drug, the CPT was not encapsulated by the lipid (DO-NGPE). Encapsulation (and concomitant protection from inactivation) can be accomplished by surrounding CPT in a liposome (a unilamellar or multilamellar structure). […] Therefore, LC-CPT appears to only contain enough lipid to form micellar aggregates of CPT or to form a hydrophobic scaffold for CPT-CPT aggregation.
The inventors attempted to protect the CPT from inactivation by surrounding the existing DO-NGPE:CPT complex with a liposome (Table 3) or by adding another lipid to DO-NGPE to form a liposome. […]

[4] = Chromatographic evaluation of CPT in the liposome fraction; format: physicochemical; conditions: lipid used alone
Method: Chromatography. A 30 cm agarose 0.5M column is used to separate liposome-bound drug from free CPT. PBS is used as the mobile phase for all preparations. Twenty samples were collected in 3 mL aliquots for a total of 60 mLs. Fluorescence and scintigraphy were used to detect encapsulated and free drug. Fluorimetry. Aliquots of 20 μl from each collection tube were transferred to cuvets containing 2 ml methanol. Fluorimetry was performed as described by Hart et al. (Hart et al., 1969). Fluorescence was measured at an excitation wavelength of 370 nm and emission wavelength of 434 nm (Perkin-Elmer MPF44A, Norwalk, Conn., U.S.A.). Two ml of ethanol was used as a control for machine calibration.
Chromatographic evaluation confirmed that <5% of CPT was incorporated in the liposome fraction of the preparation, the rest presumably being solubilized or in small particles not detectable by fluorescence microscopy.
These observation led the present inventors to other negatively charged lipids. […] Chromatographic evaluation of these preparations confirmed again that <5% of CPT eluted with the liposome fraction, the rest of the drug eluting later in a large number of consecutive fractions. By differential centrifugation, the lipid-binding efficiency of cardiolipin was about 67% and that of DO-NGPE 97%. DO-NGPE-CPT was, therefore, selected for further biological and pharmacological studies.

CCCCCCCCCCCCCCCCCC(=O)OC[C@H](COP(=O)([O-])OCC[N+](C)(C)C)OC(=O)CCCCCCCCCCCCCCCCC [Distearoyl PC]
% bound to CPT [1]: < 5% | Crystals [1]: yes

CCCCCCCCCCCCCC(=O)OC[C@H](COP(=O)([O-])OCC[N+](C)(C)C)OC(=O)CCCCCCCCCCCCC [Dimyristoyl PC, 1,2-Dimyristoyl-sn-Glycero-3-Phosphocholine]
% bound to CPT [1]: < 5% | Crystals [1]: yes

CC[C@@](O)(C(=O)O)c1cc2n(c(=O)c1CO)Cc1cc3ccccc3nc1-2 [sodium salt of CPT, camptothecin sodium]
dose-limiting toxicity (human tumors; clinical trials, early 1970's): dose-limiting leukopenia, cystitis, and gastroenteritis | clinical antitumor activity (in words) (human tumors; intestinal tumors metastatic to the liver): demonstrated activity in human tumors | activity relative to closed lactone ring base (in words) [2]: significantly less active than the lipophilic base compound

CCCCCCCC/C=C\CCCCCCCC(=O)OC[C@H](COP(=O)(O)OCCN)OC(=O)CCCCCCC/C=C\CCCCCCCC [DOPE, 1,2-Dioleoyl-sn-Glycero-3-Phosphoethanolamine]
complexation with CPT / liposome formation / CPT crystals (in words) [3]: complex well with CPT

CCCCCCCCCCCCCCCCCC(=O)OC[C@H](COP(=O)([O-])OCC[N+](C)(C)C)OC(=O)CCCCCCCCCCCCC [1-Stearoyl, 2-Myristdyl PC]
% bound to CPT [1]: < 5% | Crystals [1]: yes

CCCCCCCC/C=C\CCCCCCCC(=O)OC[C@H](COP(=O)(O)OCC(O)CO)OC(=O)CCCCCCC/C=C\CCCCCCCC (mixture of isomers) [Dioleoyl PG, 1,2-Dioleoyl-sn-Glycero-3-[Phospho-rac-(1-glycerol)]]
CPT incorporated in / eluted with the liposome fraction [4]: < 5% | interaction with CPT (in words) [1]: lack of drug crystallization | % bound to CPT [1]: < 5% | Crystals [1]: no

CCCCCCCC/C=C\CCCCCCCC(=O)O[C@H](COC(=O)CCCCCCCCCCCCCCCCC)COP(=O)([O-])OCC[N+](C)(C)C [1-Stearoyl, 2-Oleoyl PC]
% bound to CPT [1]: < 5% | Crystals [1]: yes

CCCCCCCCCCCCCC(=O)OC[C@H](COP(=O)(O)OCC(O)CO)OC(=O)CCCCCCCCCCCCC (mixture of isomers) [Dimyristoyl PG, 1,2-Dimyristoyl-sn-Glycero-3-[Phospho-rac-(1-glycerol)]]
% bound to CPT [1]: < 5% | Crystals [1]: yes

CCCCCCCC/C=C\CCCCCCCC(=O)OCC(C[N+](C)(C)C)OC(=O)CCCCCCC/C=C\CCCCCCCC (stereo not shown) [DOTAP, 1,2-Dioleoyl-3-Trimethylammonium-Propane]
complexation with CPT / liposome formation / CPT crystals (in words) [3]: complex well with CPT

CCCCCCCC/C=C/CCCCCCCC(=O)OC[C@H](COP(=O)([O-])OCC[N+](C)(C)C)OC(=O)CCCCCCC/C=C/CCCCCCCC [Dielaidoyl PC]
complexation with CPT / liposome formation / CPT crystals (in words) [3]: complex well with CPT

CCCCCC(=O)OC[C@H](COP(=O)([O-])OCC[N+](C)(C)C)OC(=O)CCCCC [Dicaproyl PC]
% bound to CPT [1]: < 5% | Crystals [1]: yes
